Test results taken from patent US9745335B2 (Blirt S.A., priority 2012, dated 2017).

Key:
LLC-PK1 cells = assay: cytotoxic activity against mammalian cells in tissue culture (MTT); format: cell-based, pig
Procedure: (§1) All media contained 100 μg/ml of penicillin G and streptomycin. 24-wells microplates containing appropriate medium were inoculated with the cells in amount of 1.2×10^4 cells/well and allowed to stand overnight. Next, tested compounds as solution in dimethylsulfoxide (DMSO) were added in volume of 10 μl (serial 2× dilutions). To control well 10 μl of DMSO was added. Microplates with cell suspensions were incubated for 120 h at temperature 37° C. at atmosphere of 95%/5% CO2. After incubation, to all wells 200 μl of solution of 3-(4,5-dimethyltiazole-2-yl)-2,5-diphenylotetrazole bromide (MTT) in PBS (4 mg/ml) was added and plates were further incubated for 4 h at 37° C. Next, to dissolve crystals of formazane 1 ml of DMSO was added and absorption of solutions was measured at the wavelength λ=540 nm (A540), using a microplates reader (Victor^3, Perkin-Wallac). […] From these graphs IC50 values were read, that is concentration of tested compound in the presence at which A540 value is half of A540 value measured in the control sample.

HepG2 cells = assay: as above; format: cell-based, human
Procedure: as §1

CCRF-CEM cells = assay: as above; format: cell-based, human
Procedure: as §1

[1] = system: Candida lipolytica KKP 322; assay: antifungal activity in vitro, broader spectrum; format: cell-based
Procedure: (§2) For the determination of antifungal activity in vitro we used method of serial dilution in buffered medium RPMI 1640, pH 7.0, in a 96-wells microplates, according to the standard procedure (National Committee for Clinical Laboratory Standards. Reference method for broth dilution antifungal susceptibility testing of yeast, approved standard, 2nd ed. M27-A2 vol. 22 Wayne, Pa., 2002). The optical density of cells suspension was measured using a microplates reader (Victor^3, Perkin-Elmer) at the wavelength λ=531 nm (A531). On the basis of obtained results the diagrams of relation between A531 values and concentration of examined compound were made.
(§3) Obtained results are presented below in tables 2A and 2B.

[2] = system: Candida quilliermondii DSM 11947; assay: antifungal activity in vitro, broader spectrum; format: cell-based
Procedure: as §2, §3

[3] = system: Trichoderma viride LOCK E159; assay: antifungal activity in vitro, broader spectrum; format: cell-based
Procedure: as §2, §3

Candida albicans SC 5314 = assay: antifungal activity in vitro, broader spectrum; format: cell-based
Procedure: as §2, §3

Candida arborea KKP 319 = assay: antifungal activity in vitro, broader spectrum; format: cell-based
Procedure: as §2, §3

[4] = system: Candida dubliniensis CBS 7987; assay: antifungal activity in vitro, broader spectrum; format: cell-based
Procedure: as §2, §3

[5] = system: Aspergillus niger LOCK E201; assay: antifungal activity in vitro, broader spectrum; format: cell-based
Procedure: as §2, §3

[6] = system: Candida stellatoidea CBS 1905; assay: antifungal activity in vitro, broader spectrum; format: cell-based
Procedure: as §2, §3

[7] = system: Candida pseudotropicalis KKP 324; assay: antifungal activity in vitro, broader spectrum; format: cell-based
Procedure: as §2, §3

[8] = system: Candida parapsilosis DSM 5784; assay: antifungal activity in vitro, broader spectrum; format: cell-based
Procedure: as §2, §3

[9] = system: Candida albicans clinical strain F2; assay: antifungal activity against MDR fungal strains and parents; format: cell-based; conditions: C. albicans F2, fluconazole sensitive, parent strain for F5
Procedure: as §2

[10] = system: Candida albicans clinical strain B3; assay: as above; format: cell-based; conditions: C. albicans B3, fluconazole sensitive, parent strain for B4
Procedure: as §2

[11] = system: Candida albicans strain 5674 (CaCdr1p, CaCdr2p); assay: as above; format: cell-based; conditions: C. albicans 5674 (CaCdr1p, CaCdr2p)
Procedure: as §2

[12] = system: Candida albicans strain STY31; assay: as above; format: cell-based; conditions: C. albicans STY31, 5674 derivative, deletion of CDR1 and CDR2
Procedure: as §2

[13] = system: Candida albicans clinical strain B4 (CaMdr1p); assay: as above; format: cell-based; conditions: C. albicans B4 (CaMdr1p), fluconazole-resistant
Procedure: as §2

[14] = system: Candida albicans clinical strain Gu4; assay: as above; format: cell-based; conditions: C. albicans Gu4, fluconazole sensitive, parent strain for Gu5
Procedure: as §2

[15] = system: Candida albicans clinical strain Gu5 (CaCdr1p, CaCdr2p); assay: as above; format: cell-based; conditions: C. albicans Gu5 (CaCdr1p, CaCdr2p), fluconazole-resistant
Procedure: as §2

[16] = system: Candida albicans strain STY7 (CaCdr1p); assay: as above; format: cell-based; conditions: C. albicans STY7 (CaCdr1p), 5674 derivative, deletion of CDR2
Procedure: as §2

[17] = system: Candida albicans clinical strain F5 (CaMdr1p); assay: as above; format: cell-based; conditions: C. albicans F5 (CaMdr1p), fluconazole-resistant
Procedure: as §2

[18] = system: Candida albicans ATCC 10231; assay: antifungal activity in vitro, serial dilution in RPMI 1640; format: cell-based
Procedure, shortened: (§4)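 Serial dilutions in RPMI 1640 at pH 7.0; yeast inoculated as in the M27-A2 reference method; turbidity measured at λ=531 nm; concentration–A531 relationships drawn for each compound.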

[19] = system: Saccharomyces cerevisiae ATCC 9763; assay: as above; format: cell-based; conditions: RPMI 1640, pH 7.0; for Antifungal activity IC50: Saccharomyces cerevisiae ATCC 9763 (first head over MIC and IC50); for Antifungal activity MIC: Saccharomyces cerevisiae ATCC 9763
Procedure, shortened: as §4

[20] = system: Candida tropicalis KKP 334; assay: as above; format: cell-based
Procedure, shortened: as §4

[21] = system: Candida glabrata DSM 11226; assay: as above; format: cell-based
Procedure, shortened: as §4

Candida krusei DSM 6128 = assay: as above; format: cell-based
Procedure, shortened: as §4

[22] = system: Candida lusitaniae DSM 70102; assay: as above; format: cell-based
Procedure, shortened: as §4

Human erythrocytes = assay: hemotoxicity determination (hemolytic activity); format: cell-based
Procedure, shortened: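 Human erythrocytes (2×10^7/ml in saline) were incubated with serially diluted compound for 30 min at 37 °C and then centrifuged. Released haemoglobin was read at A540 against a 0.1% Triton X-100 full-lysis control. EH50 is the interpolated concentration giving 50% of the control A540.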

Molecule: C[C@@H]1[C@H](O)[C@@H](C)/C=C/C=C/C=C/C=C/C=C/C=C/C=C/[C@H](O[C@@H]2O[C@H](C)[C@@H](O)[C@H](NC(=O)[C@H](N)Cc3cccnc3)[C@@H]2O)C[C@@H]2O[C@](O)(C[C@@H](O)C[C@@H](O)[C@H](O)CC[C@@H](O)C[C@@H](O)CC(=O)O[C@H]1C)C[C@H](O)[C@H]2C(=O)O [Compound A36, N-D-β-(pyridin-3-yl)alanylamphotericin B]
- IC50 (cytotoxic activity) (LLC-PK1 cells): >100 µg/mL
- IC50 (cytotoxic activity) (HepG2 cells): >100 µg/mL
- IC50 (cytotoxic activity) (CCRF-CEM cells): >100 µg/mL
- Antifungal activity MIC [1]: 2 µg/mL
- Antifungal activity MIC [2]: 1 µg/mL
- Antifungal activity MIC [3]: 4 µg/mL
- Antifungal activity MIC (Candida albicans SC 5314): 1 µg/mL
- Antifungal activity MIC (Candida arborea KKP 319): 4 µg/mL
- Antifungal activity MIC [4]: 1 µg/mL
- Antifungal activity MIC [5]: 0.5 µg/mL
- Antifungal activity MIC [6]: 2 µg/mL
- Antifungal activity MIC [7]: 1 µg/mL
- Antifungal activity MIC [8]: 2 µg/mL
- Antifungal activity MIC [9]: 4 µg/mL
- Antifungal activity MIC [10]: 0.5 µg/mL
- Antifungal activity MIC [11]: 0.5 µg/mL
- Antifungal activity MIC [12]: 0.25 µg/mL
- Antifungal activity MIC [13]: 4 µg/mL
- Antifungal activity MIC [14]: 1 µg/mL
- Antifungal activity MIC [15]: 4 µg/mL
- Antifungal activity MIC [16]: 0.5 µg/mL
- Antifungal activity MIC [17]: 4 µg/mL
- Antifungal activity MIC [18]: 2 µg/mL
- Antifungal activity IC50 [19]: 0.53 µg/mL
- Antifungal activity MIC [19]: 1 µg/mL
- Antifungal activity MIC [20]: 2 µg/mL
- Antifungal activity MIC [21]: 4 µg/mL
- Antifungal activity MIC (Candida krusei DSM 6128): 4 µg/mL
- Antifungal activity MIC [22]: 2 µg/mL
- Hemotoxi EH50 (Human erythrocytes): >100 µg/mL

Molecule: N-(L-N,N-dimethylphenylalanyl)amphotericin B [Compound A43]
- IC50 (cytotoxic activity) (LLC-PK1 cells): >100 µg/mL
- IC50 (cytotoxic activity) (HepG2 cells): >100 µg/mL
- IC50 (cytotoxic activity) (CCRF-CEM cells): >100 µg/mL
- Antifungal activity MIC [1]: 1 µg/mL
- Antifungal activity MIC [2]: 1 µg/mL
- Antifungal activity MIC [3]: 4 µg/mL
- Antifungal activity MIC (Candida albicans SC 5314): 1 µg/mL
- Antifungal activity MIC (Candida arborea KKP 319): 8 µg/mL
- Antifungal activity MIC [4]: 1 µg/mL
- Antifungal activity MIC [5]: 1 µg/mL
- Antifungal activity MIC [6]: 1 µg/mL
- Antifungal activity MIC [7]: 2 µg/mL
- Antifungal activity MIC [8]: 1 µg/mL
- Antifungal activity MIC [9]: 4 µg/mL
- Antifungal activity MIC [10]: 0.5 µg/mL
- Antifungal activity MIC [11]: 1 µg/mL
- Antifungal activity MIC [12]: 1 µg/mL
- Antifungal activity MIC [13]: 1 µg/mL
- Antifungal activity MIC [14]: 1 µg/mL
- Antifungal activity MIC [15]: 2 µg/mL
- Antifungal activity MIC [16]: 0.5 µg/mL
- Antifungal activity MIC [17]: 4 µg/mL
- Antifungal activity MIC [18]: 4 µg/mL
- Antifungal activity IC50 [19]: 1.43 µg/mL
- Antifungal activity MIC [19]: 4 µg/mL
- Antifungal activity MIC [20]: 4 µg/mL
- Antifungal activity MIC [21]: 4 µg/mL
- Antifungal activity MIC (Candida krusei DSM 6128): 4 µg/mL
- Antifungal activity MIC [22]: 2 µg/mL
- Hemotoxi EH50 (Human erythrocytes): >100 µg/mL

Molecule: C[C@@H]1[C@H](O)[C@@H](C)/C=C/C=C/C=C/C=C/C=C/C=C/C=C/[C@H](O[C@@H]2O[C@H](C)[C@@H](O)[C@H](NC(=O)[C@@H](N)Cc3ccccc3)[C@@H]2O)C[C@@H]2O[C@](O)(C[C@@H](O)C[C@@H](O)[C@H](O)CC[C@@H](O)C[C@@H](O)CC(=O)O[C@H]1C)C[C@H](O)[C@H]2C(=O)O [Compound A30, N-L-phenylalanylamphotericin B]
- IC50 (cytotoxic activity) (LLC-PK1 cells): >100 µg/mL
- IC50 (cytotoxic activity) (HepG2 cells): >100 µg/mL
- IC50 (cytotoxic activity) (CCRF-CEM cells): >100 µg/mL
- Antifungal activity MIC [1]: 2 µg/mL
- Antifungal activity MIC [2]: 1 µg/mL
- Antifungal activity MIC [3]: 4 µg/mL
- Antifungal activity MIC (Candida albicans SC 5314): 1 µg/mL
- Antifungal activity MIC (Candida arborea KKP 319): 4 µg/mL
- Antifungal activity MIC [4]: 1 µg/mL
- Antifungal activity MIC [5]: 2 µg/mL
- Antifungal activity MIC [6]: 1 µg/mL
- Antifungal activity MIC [7]: 1 µg/mL
- Antifungal activity MIC [8]: 2 µg/mL
- Antifungal activity MIC [9]: 2 µg/mL
- Antifungal activity MIC [10]: 0.5 µg/mL
- Antifungal activity MIC [11]: 0.5 µg/mL
- Antifungal activity MIC [12]: 1 µg/mL
- Antifungal activity MIC [13]: 2 µg/mL
- Antifungal activity MIC [14]: 1 µg/mL
- Antifungal activity MIC [15]: 2 µg/mL
- Antifungal activity MIC [16]: 1 µg/mL
- Antifungal activity MIC [17]: 4 µg/mL
- Antifungal activity MIC [18]: 2 µg/mL
- Antifungal activity IC50 [19]: 0.90 µg/mL
- Antifungal activity MIC [19]: 2 µg/mL
- Antifungal activity MIC [20]: 2 µg/mL
- Antifungal activity MIC [21]: 2 µg/mL
- Antifungal activity MIC (Candida krusei DSM 6128): 2 µg/mL
- Antifungal activity MIC [22]: 2 µg/mL
- Hemotoxi EH50 (Human erythrocytes): >100 µg/mL
